# Source: patent US5030760A, “Tetrahydrophthalimides, and their production and use” (Sumitomo Chemical Company, Ltd., priority 1981, dated 1991)
# Test system: corn
# Assay: Test Example 1, foliar treatment, phytotoxicity to corn; also: ranges in brackets are in %
# Type: in vivo
# Settings: 1.25 g/are, 3 weeks
# Description: (§1) The application of the tetrahydrophthalimides (I) as herbicides will be illustratively shown in the following Examples wherein the phytotoxicity to cultivated plants and the herbicidal activity on weeds were evaluated as follows: the aerial parts of the test plants were cut off and weighed (fresh weight); the percentage of the fresh weight of the treated plant to that of the untreated plant was calculated with the latter fresh weight taken as 100; and the crop damage and the herbicidal activity were evaluated by the standard given in the table below. The rating values of phytotoxicity, 0 and 1, and those of herbicidal effect, 5 and 4, are generally regarded as satisfactory to protect cultivated plants and control weeds, respectively. The rating values in the paddy field test alone were calculated from the dry weight of the test plants.
# (§2) Plastic beakers (diameter, 10 cm; height, 10 cm) were filled with upland field soil, and the seeds of corn, barnyardgrass, wild oat, wild mustard and velvetleaf were separately sown in the beakers and grown for 2 weeks in the greenhouse. A designed amount of the test compound was sprayed to the foliage of the test plants by means of a small hand sprayer. After the spraying, the test plants were further grown for 3 weeks in the greenhouse, and herbicidal activity was examined. In this foliar treatment, the test compounds were formulated into an emulsifiable concentrate according to Preparation Example 2 and applied at a spray volume of 5 liters per are by dispersing it in water with the addition of a spreading agent.
row,SMILES,"Phytotoxicity, Corn"
1,CCOc1cc(N2C(=O)C3=C(CCCC3)C2=O)c(F)cc1Br [compound 13],0 (100)
2,CCCOc1cc(N2C(=O)C3=C(CCCC3)C2=O)c(F)cc1Br [compound 14],0 (100)
3,CCC(C)Oc1cc(N2C(=O)C3=C(CCCC3)C2=O)c(F)cc1Br (centres unmarked) [compound 15],0 (100)

# Same assay, conditions: 5 g/are, 3 weeks
row,SMILES,"Phytotoxicity, Corn"
1,CCOc1cc(N2C(=O)C3=C(CCCC3)C2=O)c(F)cc1Br [compound 13],1 (90-99)
2,CCCOc1cc(N2C(=O)C3=C(CCCC3)C2=O)c(F)cc1Br [compound 14],1 (90-99)
3,CCC(C)Oc1cc(N2C(=O)C3=C(CCCC3)C2=O)c(F)cc1Br (centres unmarked) [compound 15],1 (90-99)

# Test system: barnyardgrass
# Assay: Test Example 1, foliar treatment, herbicidal activity; as to Herbicidal activity, Barnyardgrass: ranges in brackets are in %; as to Herbicidal activity, Velvetleaf: ranges in brackets are in %; as to Herbicidal activity, Wild cat: ranges in brackets are in %
# Type: in vivo, Echinochloa crus-galli
# Settings: 1.25 g/are, 3 weeks
# Description: as §1, §2
row,SMILES,"Herbicidal activity, Barnyardgrass"
1,CCOc1cc(N2C(=O)C3=C(CCCC3)C2=O)c(F)cc1Br [compound 13],2 (21-40)
2,CCCOc1cc(N2C(=O)C3=C(CCCC3)C2=O)c(F)cc1Br [compound 14],3 (11-20)
3,CCC(C)Oc1cc(N2C(=O)C3=C(CCCC3)C2=O)c(F)cc1Br (centres unmarked) [compound 15],2 (21-40)

# Same assay, conditions: 5 g/are, 3 weeks
row,SMILES,"Herbicidal activity, Barnyardgrass"
1,CCOc1cc(N2C(=O)C3=C(CCCC3)C2=O)c(F)cc1Br [compound 13],5 (0)
2,CCCOc1cc(N2C(=O)C3=C(CCCC3)C2=O)c(F)cc1Br [compound 14],5 (0)
3,CCC(C)Oc1cc(N2C(=O)C3=C(CCCC3)C2=O)c(F)cc1Br (centres unmarked) [compound 15],5 (0)

# Test system: wild oat
# Assay: as above
# Type: in vivo, Avena fatua
# Settings: 1.25 g/are, 3 weeks
# Description: as §1, §2
row,SMILES,"Herbicidal activity, Wild cat"
1,CCOc1cc(N2C(=O)C3=C(CCCC3)C2=O)c(F)cc1Br [compound 13],2 (21-40)
2,CCCOc1cc(N2C(=O)C3=C(CCCC3)C2=O)c(F)cc1Br [compound 14],3 (11-20)
3,CCC(C)Oc1cc(N2C(=O)C3=C(CCCC3)C2=O)c(F)cc1Br (centres unmarked) [compound 15],2 (21-40)

# Same assay, conditions: 5 g/are, 3 weeks
row,SMILES,"Herbicidal activity, Wild cat"
1,CCOc1cc(N2C(=O)C3=C(CCCC3)C2=O)c(F)cc1Br [compound 13],5 (0)
2,CCCOc1cc(N2C(=O)C3=C(CCCC3)C2=O)c(F)cc1Br [compound 14],5 (0)
3,CCC(C)Oc1cc(N2C(=O)C3=C(CCCC3)C2=O)c(F)cc1Br (centres unmarked) [compound 15],5 (0)

# Test system: wild mustard
# Assay: as above
# Type: in vivo, Brassica kaber
# Settings: 1.25 g/are, 3 weeks
# Description: as §1, §2
row,SMILES,"Herbicidal activity, Wild mustard"
1,CCOc1cc(N2C(=O)C3=C(CCCC3)C2=O)c(F)cc1Br [compound 13],5 (0)
2,CCCOc1cc(N2C(=O)C3=C(CCCC3)C2=O)c(F)cc1Br [compound 14],5 (0)
3,CCC(C)Oc1cc(N2C(=O)C3=C(CCCC3)C2=O)c(F)cc1Br (centres unmarked) [compound 15],5 (0)

# Same assay, conditions: 5 g/are, 3 weeks
row,SMILES,"Herbicidal activity, Wild mustard"
1,CCOc1cc(N2C(=O)C3=C(CCCC3)C2=O)c(F)cc1Br [compound 13],5 (0)
2,CCCOc1cc(N2C(=O)C3=C(CCCC3)C2=O)c(F)cc1Br [compound 14],5 (0)
3,CCC(C)Oc1cc(N2C(=O)C3=C(CCCC3)C2=O)c(F)cc1Br (centres unmarked) [compound 15],5 (0)

# Test system: velvetleaf
# Assay: as above
# Type: in vivo, Abutilon theophrasti
# Settings: 1.25 g/are, 3 weeks
# Description: as §1, §2
row,SMILES,"Herbicidal activity, Velvetleaf"
1,CCOc1cc(N2C(=O)C3=C(CCCC3)C2=O)c(F)cc1Br [compound 13],5 (0)
2,CCCOc1cc(N2C(=O)C3=C(CCCC3)C2=O)c(F)cc1Br [compound 14],5 (0)
3,CCC(C)Oc1cc(N2C(=O)C3=C(CCCC3)C2=O)c(F)cc1Br (centres unmarked) [compound 15],5 (0)

# Same assay, conditions: 5 g/are, 3 weeks
row,SMILES,"Herbicidal activity, Velvetleaf"
1,CCOc1cc(N2C(=O)C3=C(CCCC3)C2=O)c(F)cc1Br [compound 13],5 (0)
2,CCCOc1cc(N2C(=O)C3=C(CCCC3)C2=O)c(F)cc1Br [compound 14],5 (0)
3,CCC(C)Oc1cc(N2C(=O)C3=C(CCCC3)C2=O)c(F)cc1Br (centres unmarked) [compound 15],5 (0)

# Test system: corn
# Assay: Test Example 4, pre-emergence treatment, phytotoxicity to corn; also: ranges in brackets are in %
# Type: in vivo
# Settings: 2.5 g/are, 20 days
# Description: as §1
# (§3) Plastic beakers (diameter, 10 cm; height, 10 cm) were filled with upland field soil, and the seeds of corn, cotton and soybean and the seeds of morningglory, velvetleaf, Johnsongrass and green foxtail were separately sown in the beakers. A designed amount of the test compound was sprayed over the top by means of a small hand sprayer. After the spraying, the test plants were grown for 20 days in the greenhouse, and herbicidal activity and phytotoxicity were examined. In this pre-emergence treatment, the test compounds were formulated into an emulsifiable concentrate according to Preparation Example 2 and applied at a spray volume of 5 liters per are by dispersing it in water with the addition of a spreading agent.
row,SMILES,"Phytotoxicity, Corn"
1,CCOc1cc(N2C(=O)C3=C(CCCC3)C2=O)c(F)cc1Br [compound 13],0 (100)
2,CCCOc1cc(N2C(=O)C3=C(CCCC3)C2=O)c(F)cc1Br [compound 14],0 (100)
3,CCC(C)Oc1cc(N2C(=O)C3=C(CCCC3)C2=O)c(F)cc1Br (centres unmarked) [compound 15],0 (100)

# Same assay, conditions: 10 g/are, 20 days
row,SMILES,"Phytotoxicity, Corn"
1,CCOc1cc(N2C(=O)C3=C(CCCC3)C2=O)c(F)cc1Br [compound 13],0 (100)
2,CCCOc1cc(N2C(=O)C3=C(CCCC3)C2=O)c(F)cc1Br [compound 14],0 (100)
3,CCC(C)Oc1cc(N2C(=O)C3=C(CCCC3)C2=O)c(F)cc1Br (centres unmarked) [compound 15],0 (100)

# Test system: cotton
# Assay: Test Example 4, pre-emergence treatment, phytotoxicity to cotton; also: ranges in brackets are in %
# Type: in vivo
# Settings: 2.5 g/are, 20 days
# Description: as §1, §3
row,SMILES,"Phytotoxicity, Cotton"
1,CCOc1cc(N2C(=O)C3=C(CCCC3)C2=O)c(F)cc1Br [compound 13],0 (100)
2,CCCOc1cc(N2C(=O)C3=C(CCCC3)C2=O)c(F)cc1Br [compound 14],0 (100)
3,CCC(C)Oc1cc(N2C(=O)C3=C(CCCC3)C2=O)c(F)cc1Br (centres unmarked) [compound 15],0 (100)

# Same assay, conditions: 10 g/are, 20 days
row,SMILES,"Phytotoxicity, Cotton"
1,CCOc1cc(N2C(=O)C3=C(CCCC3)C2=O)c(F)cc1Br [compound 13],1 (90-99)
2,CCCOc1cc(N2C(=O)C3=C(CCCC3)C2=O)c(F)cc1Br [compound 14],0 (100)
3,CCC(C)Oc1cc(N2C(=O)C3=C(CCCC3)C2=O)c(F)cc1Br (centres unmarked) [compound 15],1 (90-99)

# Test system: soybean
# Assay: Test Example 4, pre-emergence treatment, phytotoxicity to soybean; also: ranges in brackets are in %
# Type: in vivo
# Settings: 2.5 g/are, 20 days
# Description: as §1, §3
row,SMILES,"Phytotoxicity, Soybean"
1,CCOc1cc(N2C(=O)C3=C(CCCC3)C2=O)c(F)cc1Br [compound 13],0 (100)
2,CCCOc1cc(N2C(=O)C3=C(CCCC3)C2=O)c(F)cc1Br [compound 14],0 (100)
3,CCC(C)Oc1cc(N2C(=O)C3=C(CCCC3)C2=O)c(F)cc1Br (centres unmarked) [compound 15],0 (100)

# Same assay, conditions: 10 g/are, 20 days
row,SMILES,"Phytotoxicity, Soybean"
1,CCOc1cc(N2C(=O)C3=C(CCCC3)C2=O)c(F)cc1Br [compound 13],1 (90-99)
2,CCCOc1cc(N2C(=O)C3=C(CCCC3)C2=O)c(F)cc1Br [compound 14],1 (90-99)
3,CCC(C)Oc1cc(N2C(=O)C3=C(CCCC3)C2=O)c(F)cc1Br (centres unmarked) [compound 15],1 (90-99)

# Test system: morningglory
# Assay: Test Example 4, pre-emergence treatment, herbicidal activity; also: ranges in brackets are in %
# Type: in vivo
# Settings: 10 g/are, 20 days
# Description: as §1, §3
row,SMILES,"Herbicidal activity, Morningglory"
1,CCOc1cc(N2C(=O)C3=C(CCCC3)C2=O)c(F)cc1Br [compound 13],5 (0)
2,CCCOc1cc(N2C(=O)C3=C(CCCC3)C2=O)c(F)cc1Br [compound 14],4 (1-10)
3,CCC(C)Oc1cc(N2C(=O)C3=C(CCCC3)C2=O)c(F)cc1Br (centres unmarked) [compound 15],5 (0)

# Test system: velvetleaf
# Assay: as above
# Type: in vivo, Abutilon theophrasti
# Settings: 2.5 g/are, 20 days
# Description: as §1, §3
row,SMILES,"Herbicidal activity, Velvetleaf"
1,CCOc1cc(N2C(=O)C3=C(CCCC3)C2=O)c(F)cc1Br [compound 13],4 (1-10)
2,CCCOc1cc(N2C(=O)C3=C(CCCC3)C2=O)c(F)cc1Br [compound 14],4 (1-10)
3,CCC(C)Oc1cc(N2C(=O)C3=C(CCCC3)C2=O)c(F)cc1Br (centres unmarked) [compound 15],4 (1-10)

# Same assay, conditions: 10 g/are, 20 days
row,SMILES,"Herbicidal activity, Velvetleaf"
1,CCOc1cc(N2C(=O)C3=C(CCCC3)C2=O)c(F)cc1Br [compound 13],5 (0)
2,CCCOc1cc(N2C(=O)C3=C(CCCC3)C2=O)c(F)cc1Br [compound 14],5 (0)
3,CCC(C)Oc1cc(N2C(=O)C3=C(CCCC3)C2=O)c(F)cc1Br (centres unmarked) [compound 15],5 (0)

# Test system: Johnsongrass
# Assay: as above
# Type: in vivo, Sorghum halepense
# Settings: 2.5 g/are, 20 days
# Description: as §1, §3
row,SMILES,"Herbicidal activity, Johnsongrass"
1,CCOc1cc(N2C(=O)C3=C(CCCC3)C2=O)c(F)cc1Br [compound 13],4 (1-10)
2,CCCOc1cc(N2C(=O)C3=C(CCCC3)C2=O)c(F)cc1Br [compound 14],4 (1-10)
3,CCC(C)Oc1cc(N2C(=O)C3=C(CCCC3)C2=O)c(F)cc1Br (centres unmarked) [compound 15],4 (1-10)

# Same assay, conditions: 10 g/are, 20 days
row,SMILES,"Herbicidal activity, Johnsongrass"
1,CCOc1cc(N2C(=O)C3=C(CCCC3)C2=O)c(F)cc1Br [compound 13],5 (0)
2,CCCOc1cc(N2C(=O)C3=C(CCCC3)C2=O)c(F)cc1Br [compound 14],4 (1-10)
3,CCC(C)Oc1cc(N2C(=O)C3=C(CCCC3)C2=O)c(F)cc1Br (centres unmarked) [compound 15],4 (1-10)

# Test system: green foxtail
# Assay: as above
# Type: in vivo, Setaria viridis
# Settings: 2.5 g/are, 20 days
# Description: as §1, §3
row,SMILES,"Herbicidal activity, Green foxtail"
1,CCOc1cc(N2C(=O)C3=C(CCCC3)C2=O)c(F)cc1Br [compound 13],4 (1-10)
2,CCCOc1cc(N2C(=O)C3=C(CCCC3)C2=O)c(F)cc1Br [compound 14],4 (1-10)

# Same assay, conditions: 10 g/are, 20 days
row,SMILES,"Herbicidal activity, Green foxtail"
1,CCOc1cc(N2C(=O)C3=C(CCCC3)C2=O)c(F)cc1Br [compound 13],5 (0)
2,CCCOc1cc(N2C(=O)C3=C(CCCC3)C2=O)c(F)cc1Br [compound 14],4 (1-10)
3,CCC(C)Oc1cc(N2C(=O)C3=C(CCCC3)C2=O)c(F)cc1Br (centres unmarked) [compound 15],4 (1-10)
